In patent US6492427B2, “Methods for treating multiple sclerosis” (priority 1998, dated 2002):

Columns and labels:
PROLs = experiment: Methylene blue counts of individual cell types: PROLs; format: cell-based, rat; details: BM-D9, 24 h
Experimental: (§1) Methylene blue (3,7-bis (dimethylamino)-phenothiazin-5-ium chloride), a ribonucleic acid (RNA) binding agent commonly used as an alternative nucleic acid stain, can also be used as a biological staining agent to stain cells in order to observe their morphological features. At 24 h, cells were fixed in 2% paraformaldehyde for 15 min at room temperature. Briefly, cells were washed twice with PBS and 100 μl of 1% methylene blue (Mallinckrodt Chemical Co., MO, USA) solution containing 1% AgNO3 was added for 10 min to the wells containing coverslips. Subsequently, the coverslips were washed with two changes of distilled water and absolute ethanol, cleared with xylene and mounted on slides with permount.
(§2) Cell counts were performed for 25 randomly chosen 100 power fields on each coverslip. Two randomly generated coordinates drawn from a uniform distribution of random numbers specified the center of each field. The random numbers were generated on a computer by using Microcal Origin 4.0 program. […] Three coverslips was counted for each treatment condition. In subsequent experiments, different cell types (for example, O-2A progenitors, PROLs, OLs and astrocytes) were morphologically identified on each field and were counted separately for experimental series-I and II. […]

oligodendroglial cells = experiment: Nuclear integrity assay: counts of intact nuclei (Zap-oglobin lysis) after insulin and IGF-I withdrawal; format: cell-based, rat; details: for increase in number of intact nuclei compared to BM: BM + 10^−9 M (BM-D9) vs BM; for number of intact nuclei compared to IM: IM + 10^−9 M (IM-D9)
Experimental: In order to examine insulin and IGF-I dependent survival of the cells of the oligodendroglial lineage, cells were trophically deprived for a period of 24 hours at 16 DIV.
Cells were trophically withdrawn by replacing the media with a serum free, chemically-defined base media (BM) lacking insulin and IGF-I (Bottenstein et al., 1988). The base media consisited of DMEM supplemented with penicillin (50 IU/ml); streptomycin (50 μg/ml); 1 mM sodium pyruvate; 50 μg/ml transferrin; 0.005 μg/ml sodium selenite; 16 μg/ml putrescine; 0.006 μg/ml progesterone and 0.1 mg/ml bovine serum albumin. All the cells were washed with BM twice before exposing them to individual treatment conditions. Control cells were washed and placed in BM supplemented with 2.5 ng/ml IGF-I and 5 μg/ml insulin to form the insulin media (IM).
Cell survival in the cultures was assessed according to the method of (Soto and Sonnenschein, 1985). After washing and treatment in BM, BM-D9, IM and IM-D9 for 24 h, cells were harvested, centrifuged at 500 rpm for 5 min and the supernatant removed. Pelleted cells were then lysed with 200 μl of 10% Zap-oglobin (Coulter Electronics, FL, USA). The lysing agent is a detergent containing solution that lyses the plasma membrane but leaves the nuclei intact. The lysed solution was collected and vortexed. A small volume (10 μl) of the solution was removed and intact nuclei were counted using a haemocytometer. To be counted, nuclei had to show a completely intact smooth outer border. Counts of intact nuclei were pooled for three or four experiments (a total of 15-20 wells were used for each treatment condition). each treatment condition).
OLs at 16 DIV were exposed to the different drug treatment conditions for 24 h, following which, the nuclear integrity assay was performed. On the day of the treatment, the cells growing in Nunc 24 well plates were washed twice with base media. Each treatment well received 50 μl of the appropriate drug solution and the total volume in the well was made up to 500 μl with either BM or IM.
Nuclear counts were obtained from quadruplicate wells per treatment condition and the experiment was repeated twice. OLs were exposed to the following treatment conditions: 1) IM, 2) BM, 3) BM-D9, 4) (−)-Desmethyldeprenyl (BM-Ds9), 5) IM-D9 and 6) IM +10^−9 M (−)-Desmethyldeprenyl (IM-Ds9).
The treatment conditions with the three general cytochrome P450 blockers were: 1) BM+Proadifen (2.5, 10, 25 μM), 2) BM-D9+Proadifen (2.5, 10, 25 μM), 3) BM-Ds9+Proadifen (2.5, 10, 25 μM), 4) BM+Metapyrone (50 μM), 5) BM-D9+Metapyrone (50 μM), 6) BM-Ds9+Metapyrone (50 μM), 7) BM+Piperonyl butoxide (100 μM), 5) BM-D9+Piperonyl butoxide (100 μM), 6) BM-Ds9+Piperonyl butoxide (100 μM).
OLs at 16 DIV were washed twice with base media and exposed either to actinomycin, a transcriptional blocker or cycloheximide, a translational blocker for 24 h. […] Actinomycin and cycloheximide were either used with base media alone or in combination with 10^−9 M (−)-desmethyldeprenyl. Each treatment well received 50 μl of the drug solution and the total volume of the well was made up to 500 μl with base media.
Counts of intact nuclei, obtained from quadruplicate wells per treatment condition were used to quantitate the effects of the transcriptional and translational blockers. Each experiment was repeated twice for experimental density series-II.

[1] = test system: MBP, PLP, GC and CNPase-I; experiment: Western blot of PROL and OL marker proteins; format: cell-based, rat; details: BM + 10^−9 M, 18 h
[2] = test system: CA1, CA3 and CA4 hippocampal neurons; details: 0.25 mg/kg daily, multiple time points up to 14 days (Paterson et al., 1997); cited from earlier work
O-2As = experiment: Methylene blue counts of individual cell types: O-2As; format: cell-based, rat; details: BM-D9, 24 h
Experimental: as §1, §2

[3] = pH about 3-5 vs pH about 7; cited from earlier work

C#CCN(C)[C@H](C)Cc1ccccc1 [(−)-deprenyl, R-(−)-N,α-Dimethyl-N-2-propynyl phenethylamine]
PROL cell numbers compared to those in BM (PROLs; experimental series II): 275%
PROL cell numbers compared to those in BM (PROLs; experimental series-I): 739.2%
increase in number of intact nuclei compared to BM (oligodendroglial cells; 24 h, experimental series-I): 217%
increase in number of intact nuclei compared to BM (oligodendroglial cells; 24 h, experimental series-II (15.8×10^3 cell/mm^2)): 164%
numbers of intact nuclei, % of those in IM (oligodendroglial cells; BM + 10^−9 M (BM-D9), 24 h, experimental series-I (5.3×10^3 cell/mm^2)): 119%
increase in counts of intact nuclei compared to those for BM (oligodendroglial cells; BM + 10^−9 M, 24 h, metabolite experiments (FIG. 11)): 194%
concentration-survival relationship, numbers of intact nuclei (oligodendroglial cells; BM with 10^−5, 10^−7 and 10^−9 M, 24 h): graded increase in the numbers of intact nuclei with the greatest increase for 10^−9 M
number of intact nuclei compared to IM (oligodendroglial cells; 24 h, experimental series-I): 135.6%
number of intact nuclei compared to IM (oligodendroglial cells; 24 h, experimental series-II): 102.4%
Survival (24 h) (oligodendroglial cells; OL cell survival, relative to control (IM)): ++++
band densities for MBP, CNP-ase I and PLP compared to IM [1]: exceed those for IM
immunodensity of marker proteins (MBP, PLP, GC, CNPase-I) compared to BM [1]: marked increase in immunodensity compared to BM
CA1, CA3 and CA4 hippocampal neuronal survival [2]: markedly significant increases in neuronal survival
O-2A cell numbers compared to those in BM (O-2As; experimental series II): 176%
O-2A cell numbers compared to those in BM (O-2As; experimental series-I): 244%
stability depending on pH of the medium [3]: more stable at a pH in the range of about 3-5 than at a pH of about 7
